Reference: patent US20250002526A1, “PHARMACEUTICAL COMPOSITION HAVING ANTI-CANCER IMMUNOSTIMULATING EFFECT AND/OR IMMUNE CHECKPOINT INHIBITION POTENTIATING EFFECT” (KYUSHU UNIVERSITY, NATIONAL UNIVERSITY CORPORATION, priority 2021, published 2025)
Entries after “also recorded” stand apart in the source; their conditions may differ.

Assays:
E0771-SULT cells = assay: Oral cholenoic acid in mice with transplanted E0771-SULT cells: CS production and CD8+ T cell infiltration in tumor; format: in vivo, mouse
E0771-SULT-OVA cells = assay: In vivo tumor growth of E0771-SULT-OVA cells with OTII T cell transfer; design: species or system mouse; settings: activated OTII T cells i.v. day 9, cholenoic acid oral days 12, 13 and 14
Method: In T cell transfer experiment, activated OTII CD4^+ T cells (2×10^6) and OTI CD8^+ T cells (5×10^5) were intravenously injected into tumor-bearing mice (see experimental results (4)).
Cholenoic acid was suspended in 0.5% (w/v) methylcellulose 400 solution (FUJIFILM Wako Pure Chemical Corporation) at a proportion of 50 mg/ml, and a 200-μl portion (10 mg) of the suspension was orally administered to mice (see experimental results (6)). To examine the effect on the tumor infiltration of OTII cells or OTI T cells, 5 mg of cholenoic acid was orally administered three times at intervals of 6 hours in 2 days before the assay.
CD4^+ T cells or CD8^+ T cells were magnetically selected from the spleen and peripheral lymph nodes of OTII and OTI TCR transgenic mice with Dynabeads mouse CD4 (Invitrogen), and then treated with DETACHaBEAD™ mouse CD4 (Invitrogen) or separated with a CD8a^+ T Cell Isolation Kit (Miltenyi Biotec). […]
The growth of tumors was monitored by measuring the vertical diameters of each tumor with a caliper twice a week and calculating the tumor volumes from the following expression.

[1] = target: T1, recombinant human SULT2B1b protein (Homo sapiens, UniProt O00204); assay: SULT assay (in vitro SULT2B1b enzymatic activity measurement); format: biochemical
T1 sequence (O00204 1-365): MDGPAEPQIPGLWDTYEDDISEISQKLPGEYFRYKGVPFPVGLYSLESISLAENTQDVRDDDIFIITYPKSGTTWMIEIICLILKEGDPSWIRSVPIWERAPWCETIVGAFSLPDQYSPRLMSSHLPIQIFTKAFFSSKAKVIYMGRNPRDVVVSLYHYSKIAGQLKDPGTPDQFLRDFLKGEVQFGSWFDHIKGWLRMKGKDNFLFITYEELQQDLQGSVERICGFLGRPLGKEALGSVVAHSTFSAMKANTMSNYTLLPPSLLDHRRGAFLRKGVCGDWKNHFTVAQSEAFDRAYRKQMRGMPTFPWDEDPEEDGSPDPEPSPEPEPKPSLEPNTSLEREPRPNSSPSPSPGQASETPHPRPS
Method: For screening for a SULT2B1b inhibitor, enzymatic activity measurement for SULT2B1b was carried out by a method described in a previous report (NPL 2) with slight modifications.
The reaction solution (50 μl) was composed of 1 to 5 μg of recombinant human SULT2B1b protein, 10 μM [^3H]cholesterol (approximately 4,000 dpm/pmol), 10 mM Tris-HCl (pH 7.5, containing 5 mM MgCl2) containing 0.1 mM 3′-phosphoadenosine 5′-phosphosulfate (PAPS), 0.2 mM 2-hydroxypropyl-β-cyclodextrin, and 5% (v/v) ethanol. Recombinant human SULT2B1b protein was pre-incubated with 1 μl of a test compound (final concentration: 40 or 200 μM) or DMSO (control) at room temperature for 15 minutes, 2 mM PAPS (2.5 μl) was then added to initiate reaction, the resultant was reacted at 37° C. for 15 minutes, and 0.8 ml of ethanol was added to terminate the reaction.
The solution after the reaction was subjected to thin-layer chromatography (TLC) for separation, and then to a liquid scintillation counter to quantify radiolabeled CS.
From the percentage to the amount ([…]) of radiolabeled CS generated through reaction in the absence of the test compound (DMSO) (control), the SULT2B1b activity (% activity) of SULT2B1b protein in the presence of the test compound was evaluated, and the effect of the test compound to inhibit SULT2B1b-mediated CS production (CS production inhibitory effect) was evaluated.
In enzyme assay, SULT assay was performed with use of cholenoic acid as a compound to be tested at different cholesterol and PAPS concentrations (wherein 0.5 to 1 μg of recombinant human SULT2B1b protein was used, the preincubation time and reaction time were each 10 minutes), and the results were fitted to the Michaelis-Menten equation by using Prism 9 (GraphPad Software, Inc.) to perform enzyme kinetic analysis for the inhibition by cholenoic acid.
SULT assay was performed for the compounds as test compounds by the method described in (14) of “II. Experimental procedure” in Experiment Example 1 to evaluate the SULT2B1b inhibitory effects of the compounds.

## C[C@H](CCC(=O)O)[C@H]1CC[C@H]2[C@@H]3CC=C4C[C@@H](O)CC[C@]4(C)[C@H]3CC[C@]12C [Compound 1, (R)-4-((3S,8S,9S,10R,13R,14S,17R)-3-hydroxy-10,13-dimethyl-2,3,4,7,8,9,10,11,12,13,14,15,16,17-tetradecahydro-1H-cyclopenta[a]phenanthren-17-yl)pentanoic acid]
E0771-SULT cells; oral administration on days 5, 6 and 7, analysed day 8, listed as cholenoic acid
  CS production in tumor: local reduction in CS production; also recorded: locally inhibited
E0771-SULT cells; oral administration on days 5, 6 and 7, low CS region on day 8
  CD8+ T cell infiltration in tumor: CD8^+ T cell infiltration was induced
E0771-SULT-OVA cells
  growth of E0771-SULT-OVA cells / anti-tumor immunity of OTII T cells: recovery of the effect of OTII cell or OTI T cell transplantation; also recorded: the growth of E0771-SULT-OVA cells was suppressed
[1]; Michaelis-Menten / Lineweaver-Burk, 10 μM cholesterol
  inhibition mode with respect to PAPS (sulfate donor): uncompetitively
[1]; Michaelis-Menten / Lineweaver-Burk, 100 μM PAPS
  inhibition mode with respect to cholesterol (substrate): non-competitively
[1]; recombinant human SULT2B1b, read-out: IC50 value (enzyme assay)
  IC50: 24.8 µM
[1]; test compound 200 μM, relative to DMSO control (100%), read-out: in vitro SULT2B1b assay % activity at 200 μM
  activity at 200 µM: 20.6%
